# Patent US20110281956A1, “USE OF THYMUS CAPITATUS EXTRACT, SATUREJA HORTENSIS EXTRACT, OR CARVACROL FOR TREATING METABOLIC DISEASES” (INDUSTRY-ACADEMIC COOPERATION FOUNDATION, YONSEI UNIVERSITY, priority 2009, published 2011)
# “Also recorded” adds a separate entry of the source. Marks after values point to notes of the source that are not given here.
# Assays:
# preadipocytes 3T3-L1 = assay: Adipocyte differentiation inhibition, Oil Red O staining; type: cell-based, mouse; details: 14 days
# Procedure: The effect of carvacrol […] on adipocyte differentiation and growth was investigated using mouse adipocytes (3T3-L1). Preadipocytes 3T3L1 were placed on a 12-well plate and cultured to confluency in a 5% CO2 incubator at 37° C. using DMEM containing 1% penicillin-streptomycin, 1% non-essential amino acids and 10% fetal bovine serum (FBS). The cultured 3T3-L1 cells were differentiated into adipocytes by culturing for 2 days in a medium containing 0.5 mM methylisobutylxanthine/1 μM dexamethasone/1 μg/mL insulin (DMI). The cells were differentiated into mature adipocytes by further culturing for 2 days in DMEM containing 1 μg/mL insulin. Subsequently, they were further cultured for 10 days while changing DMEM every other day to obtain fully differentiated adipocytes.
# Starting from the day when DMI was added to the 3T3-L1 cells, carvacrol was treated at concentrations of 0.1, 1, 10, 50 and 100 μM every other day. Carvacrol was purchased from Sigma and used after dissolving in DMSO. For negative control, only DMSO was used. After the culturing for a total of 14 days, when the cells were fully differentiated, the medium was removed and the fats contained in the differentiated adipocytes were stained. […]
# To measure the triglyceride level of the differentiated 3T3-L1 cells, the stained cells were dissolved in 1 mL of isobutanol and OD value was measured at 600 nm.
# [1] = system: C57BL/6J mice on high-fat diet; assay: Carvacrol-containing high-fat diet fed to mice for 10 weeks: abdominal fat, blood lipids, glucose, insulin, liver lipids; type: in vivo, mouse
# Procedure: High-fat diet (HFD: 40% fat calorie, 17 g lard+3% corn oil/100 g diet) was used to induce obesity. Carvacrol-containing diet had the same composition as the HFD except for containing 0.1% carvacrol. Normal diet (ND) was prepared according to AIN-76 rodent diet (see Table 1).
# 5-week-old male C57BL/6J mice were accustomed to the laboratory environment for a week while feeding solid feed. They were randomly divided into the ND, HFD and carvacrol groups according to the randomized block design and reared for 10 weeks. Diet was provided between 10 and 11 a.m. every day along with water. Food intake was measured every day, and body weight was measured every 3 days. In order to avoid transient body weight increase due to feed intake, body weight was measured 2 hours after removing the feedbox.
# After fasting the test animal for at least 12 hours and anesthetizing with diethyl ether, blood, liver and abdominal fat tissue (epididymal, perirenal, mesenteric and retroperitoneal fat) were taken and weighed after washing with 0.1 M PBS (pH 7.4). The blood taken from the abdominal aorta was centrifuged at 1000×g for 15 minutes to isolate the serum.
# Total cholesterol level, triglyceride level, glucose level and insulin level in plasma and lipid components in liver tissue were measured as follows. Total cholesterol level, triglyceride level and glucose level in plasma were measured 2 times using a commercially available kit (Bio Clinical System), and insulin level was measured by ELISA using a mouse Insulin kit (Shibayali, Japan). Lipid components were extracted from liver tissue according to Folch et al.'s method (Folch J, Lees M, Sloane Stanley G H. A simple method for the isolation and purification of total lipids from animal tissues. J. Biol. Chem. 1957; 226: 497-509) as follows. After adding 1 mL of distilled water to 0.25 g of liver tissue, the liver tissue was homogenized using a Polytron homogenizer (IKA-WERKE GmbH & Co., Ultra-Turrax, Staufen, Germany). After adding 5 mL of a chloroform/methanol mixture solution (2:1, v/v) to the homogenate and mixing well, centrifugation was performed at 1000×g for 10 minutes. Then, after separating the pellets and adding 2 mL of the chloroform/methanol mixture solution (2: 1, v/v) again to the supernatant, the same procedure was repeated to completely isolate the lipid components. After adding 3 mL of a chloroform/methanol/0.05% CaCl2 mixture solution (3:48:47, v/v/v) to thus obtained pellets and mixing for 1 minute, centrifugation was performed at 1000×g for 10 minutes. Finally, the resulting pellets were completely dried using nitrogen gas and the dried lipids were dissolved in 1 mL of methanol for analysis of the lipid components. Triglyceride level of the liver tissue was measured as in the plasma analysis using the same commercially available kit (Bio Clinical System).
# In Table 2, the characters a, b and c indicate significance according to one-way ANOVA and Duncan's multiple range test (p<0.001). The atherogenic index was calculated by (total cholesterol−HDL cholesterol)/HDL cholesterol, and the insulin resistance index was calculated by 10^−3 pmol insulin×mmol glucose×L^−2.
# [2] = system: leiomyosarcoma cells isolated from rats cancer-induced with 3,4-benzopyrene; details: carvacrol at 67 μM for 24 hours or at 90 μM for 48 hours; cited from earlier work
# [3] = 0.1% carvacrol in high-fat diet
# [4] = 0.1% carvacrol in high-fat diet, FIG. 2
# [5] = blood (plasma), 0.1% carvacrol in high-fat diet
# [6] = liver tissue, 0.1% carvacrol in high-fat diet
structure (smiles),measurement,setting,value
"Cc1ccc(C(C)C)cc1O [Carvacrol, carvacrol]","fats stained with Oil Red O, OD value at 600 nm (cellular fat content)","preadipocytes 3T3-L1; 0.1-100 μM, FIG. 1B",decreased the cellular fat content in a concentration-dependent manner; also recorded: decrease in OD value in a concentration-dependent manner
same,concentrations at which differentiation of the preadipocytes 3T3-L1 was decreased,"preadipocytes 3T3-L1; concentration-dependent, 0.1, 1, 10, 50 and 100 μM every other day, FIG. 1A",≥ 10 µM
same,Liver weight,[1]; [3],4.1 ± 0.1^b g/100 g body wt
same,decrease in LDL+VLDL cholesterol level in plasma (serum) vs HFD,[1]; [3],46%
same,decrease in atherogenic index vs HFD,[1]; [3],44%
same,decrease in cholesterol level in liver tissue vs HFD,[1]; [3],42%
same,decrease in free fatty acid level in liver tissue vs HFD,[1]; [3],58%
same,decrease in free fatty acid level in plasma (serum) vs HFD,[1]; [3],80%
same,decrease in liver weight (liver-to-body weight ratio) vs HFD,[1]; [3],25%
same,decrease in total cholesterol level in plasma (serum) vs HFD,[1]; [3],29%
same,decrease in triglyceride level in liver tissue vs HFD,[1]; [3],48%
same,decrease in triglyceride level in plasma (serum) vs HFD,[1]; [3],30%
same,fasting blood sugar as compared to the HFD group,[1]; [3],significant decrease
same,insulin level as compared to the HFD group,[1]; [3],significant decrease
same,insulin resistance index as compared to the HFD group,[1]; [3],significant decrease
same,decrease in epididymal fat weight vs HFD,[1]; [4],31%
same,decrease in mesenteric fat weight vs HFD,[1]; [4],51%
same,decrease in perirenal fat weight vs HFD,[1]; [4],54%
same,decrease in retroperitoneal fat weight vs HFD,[1]; [4],23%
same,decrease in total abdominal fat weight vs HFD,[1]; [4],36%
same,Insulin resistance index,"[1]; 10^−3 pmol insulin×mmol glucose×L^−2, 0.1% carvacrol in high-fat diet",0.68 ± 0.08^b
same,Atherogenic index,"[1]; (total cholesterol−HDL cholesterol)/HDL cholesterol, 0.1% carvacrol in high-fat diet",0.57 ± 0.18^b
same,Insulin,"[1]; ELISA, 0.1% carvacrol in high-fat diet",0.58 ± 0.06^b ng/mL
same,Free fatty acid,[1]; [5],280 ± 35^c uEq/L
same,HDL cholesterol,[1]; [5],1.68 ± 0.16^ab mmol/L
same,LDL + VLDL cholesterol,[1]; [5],1.11 ± 0.05^b mmol/L
same,Total cholesterol,[1]; [5],2.73 ± 0.30^b mmol/L
same,Triglyceride,[1]; [5],0.98 ± 0.14^b mmol/L
same,Glucose,"[1]; fasting, blood (plasma), 0.1% carvacrol in high-fat diet",6.83 ± 0.31^b mmol/L
same,Cholesterol,[1]; [6],45.4 ± 5.5^b μmol/g
same,Free fatty acid,[1]; [6],10.3 ± 0.73^b uEq/g
same,Triglyceride,[1]; [6],22.0 ± 6.0^b μmol/g
same,production of the final product of platelet aggregation thromboxane B2,[2],decreased
same,proliferation of cancer cells,[2],inhibited
